We go through 3 compounds from paper PMC4666608, “Metabolic Profiling of Chicken Embryos Exposed to Perfluorooctanoic Acid (PFOA) and Agonists to Peroxisome Proliferator-Activated Receptors” (PLoS ONE, 2015).

In one data set the test system is human PPARα. On the set-up: method as in PMID 16038868. As to conditions: reporter cell assay; read-out: EC50, activation of transcription through human PPARα; cited from earlier work.
A short description of data set [1]: Determination of PFOA in liver (UPLC-MS/MS). In kind it is in vivo, Gallus gallus domesticus. As to conditions: for concentration at 5 days: chicken (Gallus gallus domesticus) embryo, other: air sac injection into the egg, 1000 µg/egg; for concentration at 5 days / concentration at 5 d: liver; for concentration at 5 d: chicken, other: air sac injection in ovo. The protocol: (§1) Controls were injected with 20 μL vehicle only (DMSO).
(§2) The concentration of PFOA was analyzed in liver and blood plasma from control embryos and embryos exposed to PFOA (50, 250 and 1000 μg/egg). Five individual livers from each PFOA-treated group were analyzed. Very low PFOA concentrations were anticipated in the controls and therefore the amount of tissue was increased by pooling 2–3 livers, and five such pools were analyzed. Four plasma samples (50 μL) were analyzed from each group except the group exposed to 1000 μg PFOA/egg for which three samples were analyzed. Extraction blanks were included for each batch. The analyzed amount of liver homogenate was 100 mg for controls and 50 mg for PFOA-exposed embryos. Livers were homogenized using the bead mill Bullet Blender® Storm 24 (Next Advance, Inc. New York, USA) with stainless steel beads at speed 8 for 3 min. Plasma and liver samples were spiked with 50 ng of internal standard (^13C4-PFOA, Wellington, Guelph, Canada). Five milliliters of acetonitrile (Labscan, Gliwice, Poland) was added to the samples followed by vortex mixing, sonication (20 min), and centrifugation (10 000 g, 5 min). Extraction was performed twice for livers and once for plasma. One mL of supernatant from the extracts was transferred to a tube prepared with 50 mg ENVI-Carb™ 20/400 mesh (Supelco, Bellefonte, PA, USA) and 100 μL glacial acetic acid (Sigma-Aldrich). The carbon suspension was vortex mixed and then filtrated using a 0.2-μm GHP filter (Pall, East Hills, NY, USA). Filtrate (0.4 mL) was mixed with 2 ng of the recovery standard (^13C8-PFOA, Wellington Laboratories) and 0.6 mL 2 mM ammonium acetate was added. Analysis was performed using an Acquity UPLC coupled to a Xevo-TQS MS/MS (Waters Corporation, Milford, MA, USA) as described previously. The recovery standard ^13C8-PFOA was added before injection to assess the recoveries of the internal standard ^13C4-PFOA. The recoveries ranged between 75 and 94% (average 82%) for plasma and between 64 and 119% (average 84%) for liver.

Data set [2] is described as follows: Determination of PFOA in blood plasma (UPLC-MS/MS). It counts as in vivo, Gallus gallus domesticus. As to conditions: E12; for concentration at 5 d: chicken, plasma, other: air sac injection in ovo. How it is done: as §1
Plasma was collected and stored at -70°C.
as §2

For data set [3] the following is noted: for Body weight, Mean ± SD / Liver-somatic index, Mean ± SD: E12; for Body weight / Liver weight / Liver-somatic index: group mean. The protocol: The experimental procedures in this study were approved by the Uppsala Ethical Committee for Research on Animals (Permit number C 211/12). Fertilized chicken eggs (Gallus gallus domesticus) were obtained from a local breeder (Ova Production AB, Vittinge, Sweden). The egg weights were 60 ± 4 g (mean and standard deviation). The eggs were incubated at 37.5°C and 60% relative humidity with automatic turning every six hours. The day the eggs were placed in the incubator was defined as embryonic day zero (E0). Chicken embryos were exposed to test substances by air sac injection in eggs incubated for seven days (E7). At this stage, the extraembryonic allantoic blood vessel network has grown to cover the inner shell membrane beneath the air sac and the injected substance will come in direct contact with the vascular network. The exposures were performed as follows: Unfertilized eggs and poorly developing embryos were recognized by candling and were sorted out. Eggs with embryos of normal size were collected and randomly distributed into the different treatment groups. On E7, the blunt end of each egg was wiped with alcohol and a small hole was drilled through the shell above the air sac. The dissolved test substance (20 μl) was deposited onto the inner shell membrane in the air sac and the hole was sealed with melted paraffin wax. Following injection, eggs were held horizontally and rotated for a few seconds to allow dispersal over the inner shell membrane in the air sac. Each egg was marked with a number specifying the treatment group and was placed at a random location in the incubator.
The doses were 150 μg/egg (approximately 2.5 mg/kg egg) for GW7647 and rosiglitazone and 50, 250 or 1000 μg/egg for PFOA (approximately 0.83, 4.2 and 18 mg/kg egg, respectively). Controls were injected with 20 μL vehicle only (DMSO). Due to the large number of embryos required, the experiment was divided into four replicate experiments (replicate A-D) performed the same way but on separate occasions. The number of exposed embryos was 10–15 for each treatment group and replicate.
Embryos and livers were weighed and the liver-somatic index was calculated (100 x liver weight/body weight). Livers were collected from the control group and from each of the PFOA groups for determination of PFOA concentrations. These livers were stored at -20°C and later extracted and analyzed as described below. Four females and four males from each PFOA group (except the 1000 μg/egg group) and from the control group were also randomly chosen for evaluation of signs of overt liver toxicity using liver histology (method described in S1 Methods).
The software GraphPad Prism version 5 (GraphPad Software Inc, San Diego, CA, USA) was used for univariate and bivariate statistics. Mortality rates were analyzed with Fisher’s exact test. Body weight, liver-somatic index and concentrations of plasma lipids were initially analyzed using two-way analysis of variance (two-way ANOVA) with treatment and sex (or treatment and replicate) as independent variables. […] Metabolites were selected by multivariate methods as described below and differences in concentrations (treatment groups vs control group as well as females vs males) were then tested using Student’s t-test. The results of these t-tests on metabolite concentrations were used in an exploratory way to find candidate metabolites and for that reason the p-values were not corrected for multiple comparisons.

In a further data set the test system is human PPARγ. On the set-up: method as in PMID 16038868. As to conditions: reporter cell assay; read-out: EC50, activation of transcription through human PPARγ; cited from earlier work.
[4] abbreviates: PFOA 1000 μg/egg, five embryos from replicate A.
The mark [5] stands for this setting: group PFOA 1000 (1000 µg/egg), five embryos, replicate A only.

pEC50: −log10 of the molar value. Several values for one entry are separate records, joined by “and”; a condition that tells them apart may be missing. Equal entries are not always repeated. Where two headings read alike, the source gives them in different places.

For the compound `CC(C)(Sc1ccc(CCN(CCCCC2CCCCC2)C(=O)NC2CCCCC2)cc1)C(=O)O` [GW7647, reference compound], the negative-log EC50 (pEC50) (in general, −log10 of the EC50, conventionally taken in molar units) in the data set with human PPARα was […].
With `O=C(O)C(F)(F)C(F)(F)C(F)(F)C(F)(F)C(F)(F)C(F)(F)C(F)(F)F` [PFOA, perfluorooctanoic acid], the Concentration in liver in data set [1] (PFOA 50 µg/egg, chicken embryo liver, individual embryos) was 1067 ng/g and 1343 ng/g and 1269 ng/g and 1059 ng/g; in data set [1] (PFOA 250 µg/egg, chicken embryo liver, individual embryos) it was 3843 ng/g and 2549 ng/g and 3327 ng/g and 3144 ng/g; in data set [1] (PFOA 1000 µg/egg, chicken embryo liver, individual embryos), 11372 ng/g and 14202 ng/g and 9187 ng/g and 10517 ng/g. For the same compound, the concentration at 5 days in data set [1] (PFOA 1000 µg/egg, chicken embryo liver, group mean (n=5), read-out: Concentration in liver, Mean) was 10800 ng/g; in data set [1] (PFOA 1000 µg/egg, chicken embryo liver, individual embryos, read-out: Concentration in liver), 8570 ng/g. In addition, the concentration at 5 d in data set [1] (50 μg/egg, E12, 50 μg PFOA/egg on E7, read-out: Mean PFOA concentration in liver) is 1100 ng/g; in data set [1] (50 µg/egg, PFOA 50 µg/egg, chicken embryo liver, group mean (n=5), read-out: Concentration in liver, Mean) it was 1180 ng/g; in data set [1] (50 µg/egg, PFOA 50 µg/egg, chicken embryo liver, individual embryos, read-out: Concentration in liver), 1170 ng/g; in data set [1] (250 μg/egg, E12, 250 μg PFOA/egg on E7, read-out: Mean PFOA concentration in liver), 3600 ng/g; in data set [1] (250 µg/egg, PFOA 250 µg/egg, chicken embryo liver, group mean (n=5), read-out: Concentration in liver, Mean), 3580 ng/g; in data set [1] (250 µg/egg, PFOA 250 µg/egg, chicken embryo liver, individual embryos, read-out: Concentration in liver), 5060 ng/g. In addition, the concentration at 5 d in data set [1] (1000 μg/egg, E12, 1000 μg PFOA/egg on E7, read-out: Mean PFOA concentration in liver) was 11000 ng/g; in data set [2] (50 μg/egg, 50 μg PFOA/egg on E7, read-out: Mean PFOA concentration in plasma), 2000 ng/mL; in data set [2] (50 µg/egg, PFOA 50 µg/egg, read-out: Concentration in plasma, Mean), 2000 ng/mL; in data set [2] (50 µg/egg, PFOA 50 µg/egg, read-out: Concentration in plasma, individual embryo), 1440 ng/mL; in data set [2] (250 μg/egg, 250 μg PFOA/egg on E7, read-out: Mean PFOA concentration in plasma) it was 6300 ng/mL; in data set [2] (250 µg/egg, PFOA 250 µg/egg, read-out: Concentration in plasma, Mean) it was 6300 ng/mL. Also, the concentration at 5 d in data set [2] (250 µg/egg, PFOA 250 µg/egg, read-out: Concentration in plasma, individual embryo) was determined as 5480 ng/mL; in data set [2] (1000 μg/egg, 1000 μg PFOA/egg on E7, read-out: Mean PFOA concentration in plasma), 18000 ng/mL; in data set [2] (1000 µg/egg, PFOA 1000 µg/egg, read-out: Concentration in plasma, Mean), 17600 ng/mL; in data set [2] (1000 µg/egg, PFOA 1000 µg/egg, read-out: Concentration in plasma, individual embryo), 16700 ng/mL. Further, the “Concentration in plasma, individual embryo” value in data set [2] (PFOA 50 µg/egg, female embryos) is 2453 ng/mL and 2350 ng/mL; in data set [2] (PFOA 50 µg/egg, male embryos), 1759 ng/mL; in data set [2] (PFOA 250 µg/egg, female embryos), 8562 ng/mL; in data set [2] (PFOA 250 µg/egg, male embryos), 5531 ng/mL and 5643 ng/mL; in data set [2] (PFOA 1000 µg/egg) it was 17963 ng/mL and 18228 ng/mL. For the same compound, the “Body weight, Mean ± SD” value in data set [3] (PFOA 50 μg/egg) stood at 4.2 ± 0.5 g; in data set [3] (PFOA 250 μg/egg), 4.3 ± 0.4 g; in data set [3] (setting [4]), 4.6 ± 0.4 g. Besides, the “Liver-somatic index, Mean ± SD” value in data set [3] (PFOA 50 μg/egg) amounted to 1.7 ± 0.1%; in data set [3] (PFOA 250 μg/egg) it was 1.7 ± 0.2%; in data set [3] (setting [4]), 2.0 ± 0.2%. The Body weight in data set [3] (group PFOA 50 (µg/egg)) was 4.2 g; in data set [3] (group PFOA 250 (µg/egg)) it was 4.3 g; in data set [3] (setting [5]), 4.6 g. Moreover, the Liver weight in data set [3] (group PFOA 50 (µg/egg)) stood at 70.6 mg; in data set [3] (group PFOA 250 (µg/egg)), 72.7 mg; in data set [3] (setting [5]), 91.5 mg. In addition, the results for the Liver-somatic index in data set [3] (group PFOA 50 (µg/egg)), in data set [3] (group PFOA 250 (µg/egg)) and in data set [3] (setting [5]) were 1.7%, 1.7% and 2.0%, respectively.
Regarding `CN(CCOc1ccc(CC2SC(=O)NC2=O)cc1)c1ccccn1` (stereo not shown) [Rosiglitazone, rosiglitazone, reference compound], in the data set on human PPARγ, the pEC50 was 7.74.
